According to patent publication US20240247015A1, “PHOSPHORUS DERIVATIVES AS NOVEL SOS1 INHIBITORS” (BAYER AKTIENGESELLSCHAFT, priority 2021, published 2024):

Molecular target: interaction of human SOS1 (SOS1) with human K-RasG12C (Homo sapiens (Human), UniProt Q07889)
Experiment: Biochemical assay: hK-RasG12C interaction assay with hSOS1 (HTRF)
Format: binding
Settings: GST-hK-RasG12C with His-hSOS1, 60 min incubation at 20° C., mean, read-out: K-RasG12C - SOS interaction assay IC50 (mean)
In short: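 Compounds, duplicates at 11 concentrations from 0.073 nM to 20 µM, were preincubated 2 min with 10 nM GST-hK-RasG12C, then 20 nM His-hSOS1 was added, all at 20 °C. After 60 min, 665/620 nm HTRF ratio normalized to DMSO and SOS1-free controls; IC50 by 4-parameter fit.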

Sequence of interaction of human SOS1 (SOS1) with human K-RasG12C (Q07889 564-1049 limits assumed): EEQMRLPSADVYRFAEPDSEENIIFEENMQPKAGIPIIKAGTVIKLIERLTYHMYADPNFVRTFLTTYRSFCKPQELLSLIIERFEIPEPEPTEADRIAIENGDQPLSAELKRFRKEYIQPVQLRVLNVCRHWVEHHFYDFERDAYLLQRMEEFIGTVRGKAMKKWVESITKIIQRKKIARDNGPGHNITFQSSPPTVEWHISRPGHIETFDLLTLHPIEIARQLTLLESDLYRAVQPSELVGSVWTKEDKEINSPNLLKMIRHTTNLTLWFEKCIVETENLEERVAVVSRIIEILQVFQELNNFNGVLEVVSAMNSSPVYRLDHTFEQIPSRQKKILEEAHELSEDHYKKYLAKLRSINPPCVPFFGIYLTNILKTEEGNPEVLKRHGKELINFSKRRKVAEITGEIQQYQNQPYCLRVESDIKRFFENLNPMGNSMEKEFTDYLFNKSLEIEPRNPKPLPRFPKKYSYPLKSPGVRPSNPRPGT

| Structure (SMILES) | IC50 |
| --- | --- |
| CC(=O)N1CCP(=O)(c2cc3c(N[C@H](C)c4cccc(C(F)(F)F)c4C)nc(C)nc3c(C)n2)CC1 [Example 146, (R)-1-(4-(2,8-dimethyl-4-((1-(2-methyl-3-(trifluoromethyl)phenyl)ethyl)amino)pyrido[3,4-d]pyrimidin-6-yl)-4-oxido-1,4-azaphosphinan-1-yl)ethan-1-one] | 81 nM |
| Cc1nc(N[C@H](C)c2cccc(C(F)F)c2F)c2cc(P3(=O)CCN(C(=O)[C@@H](C)O)CC3)ncc2n1 [Example 150, 4-[4-{{(1R)-1-[3-(difluoromethyl)-2-fluorophenyl]ethyl}amino)-2-methylpyrido[3,4-d]pyrimidin-6-yl]-1-[(2R)-2-hydroxypropanoyl]-1,4lambda^5-azaphosphinan-4-one] | 4.76 nM |
| Cc1nc(N[C@H](C)c2cccc(C(F)F)c2F)c2cc(P3(=O)CCN(C(=O)C4(F)CC4)CC3)ncc2n1 [Example 151, 4-[4-{{(1R)-1-[3-(difluoromethyl)-2-fluorophenyl]ethyl}amino)-2-methylpyrido[3,4-d]pyrimidin-6-yl]-1-(1-fluorocyclopropane-1-carbonyl)-1,4lambda^5-azaphosphinan-4-one] | 12.2 nM |
| Cc1nc(N[C@H](C)c2cccc(C(F)F)c2F)c2cc(P3(=O)CCN(C(=O)C(C)C)CC3)ncc2n1 [Example 153, 4-[4-({(1R)-1-[3-(difluoromethyl)-2-fluorophenyl]ethyl}amino)-2-methylpyrido[3,4-d]pyrimidin-6-yl]-1-(2-methylpropanoyl)-1,4lambda^5-azaphosphinan-4-one] | 7.4 nM |
| COCC(=O)N1CCP(=O)(c2cc3c(N[C@H](C)c4cccc(C(F)F)c4F)nc(C)nc3cn2)CC1 [Example 154, 4-[4-{{(1R)-1-[3-(difluoromethyl)-2-fluorophenyl]ethyl}amino)-2-methylpyrido[3,4-d]pyrimidin-6-yl]-1-(methoxyacetyl)-1,4lambda^5-azaphosphinan-4-one] | 6.15 nM |
| CO[C@H](C)C(=O)N1CCP(=O)(c2cc3c(N[C@H](C)c4cccc(C(F)F)c4F)nc(C)nc3cn2)CC1 [Example 155, 4-[4-{{(1R)-1-[3-(difluoromethyl)-2-fluorophenyl]ethyl}amino)-2-methylpyrido[3,4-d]pyrimidin-6-yl]-1-[(2R)-2-methoxypropanoyl]-1,4lambda^5-azaphosphinan-4-one] | 11.1 nM |
| Cc1nc(N[C@H](C)c2cccc(C(F)F)c2F)c2cc(P3(=O)CCN(C(=O)C4COC4)CC3)ncc2n1 [Example 158, 4-[4-{{(1R)-1-[3-(difluoromethyl)-2-fluorophenyl]ethyl}amino)-2-methylpyrido[3,4-d]pyrimidin-6-yl]-1-(oxetane-3-carbonyl)-1,4lambda^5-azaphosphinan-4-one] | 7.89 nM |
| Cc1nc(N[C@H](C)c2cccc(C(F)(F)F)c2C)c2cc(P3(=O)CCN(C(=O)CC#N)CC3)ncc2n1 [Example 162, 3-{4-[2-methyl-4-({(1R)-1-[2-methyl-3-(trifluoromethyl)phenyl]ethyl}amino)pyrido[3,4-d]pyrimidin-6-yl]-4-oxo-1,4lambda^5-azaphosphinan-1-yl}-3-oxopropanenitrile] | 272 nM |

Continued by falling IC50, values first:

| IC50 | Structure (SMILES) |
| --- | --- |
| 18 nM | CO[C@@H](C)C(=O)N1CCP(=O)(c2cc3c(N[C@H](C)c4cccc(C(F)F)c4F)nc(C)nc3cn2)CC1 [Example 149, 4-[4-{{(1R)-1-[3-(difluoromethyl)-2-fluorophenyl]ethyl}amino)-2-methylpyrido[3,4-d]pyrimidin-6-yl]-1-[(2S)-2-methoxypropanoyl]-1,4lambda^5-azaphosphinan-4-one] |
| 13.4 nM | Cc1nc(N[C@H](C)c2cccc(C(F)F)c2F)c2cc(P3(=O)CCN(C(=O)c4cnn(C)c4)CC3)ncc2n1 [Example 161, 4-[4-{{(1R)-1-[3-(difluoromethyl)-2-fluorophenyl]ethyl}amino)-2-methylpyrido[3,4-d]pyrimidin-6-yl]-1-(1-methyl-1H-pyrazole-4-carbonyl)-1,4lambda^5-azaphosphinan-4-one] |
| 12.7 nM | Cc1nc(N[C@H](C)c2cccc(C(F)F)c2F)c2cc(P3(=O)CCN(C(=O)C4(C#N)CC4)CC3)ncc2n1 [Example 152, 1-{4-[4-{{(1R)-1-[3-(difluoromethyl)-2-fluorophenyl]ethyl}amino)-2-methylpyrido[3,4-d]pyrimidin-6-yl]-4-oxo-1,4lambda5-azaphosphinane-1-carbonyl}cyclopropane-1-carbonitrile] |
| 12.7 nM | Cc1nc(N[C@H](C)c2cccc(C(F)F)c2F)c2cc(P3(=O)CCN(C(=O)C4(C(F)F)CC4)CC3)ncc2n1 [Example 159, 1-[1-(difluoromethyl)cyclopropane-1-carbonyl]-4-[4-{{(1R)-1-[3-(difluoromethyl)-2-fluorophenyl]ethyl}amino)-2-methylpyrido[3,4-d]pyrimidin-6-yl]-1,4lambda^5-azaphosphinan-4-one] |
| 11.4 nM | Cc1nc(N[C@H](C)c2cccc(C(F)F)c2F)c2cc(P3(=O)CCN(C(=O)C4(O)CC4)CC3)ncc2n1 [Example 156, 4-[4-{{(1R)-1-[3-(difluoromethyl)-2-fluorophenyl]ethyl}amino)-2-methylpyrido[3,4-d]pyrimidin-6-yl]-1-(1-hydroxycyclopropane-1-carbonyl)-1,4lambda^5-azaphosphinan-4-one] |
| 7.87 nM | Cc1nc(N[C@H](C)c2cccc(C(F)F)c2F)c2cc(P3(=O)CCN(C(=O)C4CC(F)(F)C4)CC3)ncc2n1 [Example 160, 1-(3,3-difluorocyclobutane-1-carbonyl)-4-[4-({(1R)-1-[3-(difluoromethyl)-2-fluorophenyl]ethyl}amino)-2-methylpyrido[3,4-d]pyrimidin-6-yl]-1,4lambda^5-azaphosphinan-4-one] |
| 5.04 nM | Cc1nc(N[C@H](C)c2cccc(C(F)F)c2F)c2cc(P3(=O)CCN(C(=O)[C@H](C)O)CC3)ncc2n1 [Example 157, 4-[4-{{(1R)-1-[3-(difluoromethyl)-2-fluorophenyl]ethyl}amino)-2-methylpyrido[3,4-d]pyrimidin-6-yl]-1-[(2S)-2-hydroxypropanoyl]-1,4lambda^5-azaphosphinan-4-one] |
| 4.51 nM | CC(=O)N1CCP(=O)(c2cnc3nc(C)nc(N[C@H](C)c4cccc(C(F)(F)F)c4C)c3c2)CC1 [Example 147, 1-acetyl-4-[2-methyl-4-({(1R)-1-[2-methyl-3-(trifluoromethyl)phenyl]ethyl}amino)pyrido[2,3-d]pyrimidin-6-yl]-1,4lambda^5-azaphosphinan-4-one] |
| 4.35 nM | CC(=O)N1CCP(=O)(c2cc3c(N[C@H](C)c4cccc(C(F)(F)F)c4C)nc(C)nc3nc2C)CC1 [Example 145, 1-acetyl-4-[2,7-dimethyl-4-({(1R)-1-[2-methyl-3-(trifluoromethyl)phenyl]ethyl}amino)pyrido[2,3-d]pyrimidin-6-yl]-1,4lambda^5-azaphosphinan-4-one] |
| 1.97 nM | COc1nc2nc(C)nc(N[C@H](C)c3cccc(C(F)(F)F)c3C)c2cc1P1(=O)CCN(C(C)=O)CC1 [Example 144, 1-acetyl-4-[7-methoxy-2-methyl-4-({(1R)-1-[2-methyl-3-(trifluoromethyl)phenyl]ethyl}amino)pyrido[2,3-d]pyrimidin-6-yl]-1,4lambda^5-azaphosphinan-4-one] |
